Source: patent US20150010928A1, “MEANS AND METHODS FOR ASSESSING AN ENDOCRINE DISEASE OR DISORDER” (priority 2012, published 2015)
Marks after values point to notes of the source that are not given here.

System: male rats
Assay: Plasma metabolite profiling (GC-MS, LC-MS, SPE-LC-MS) in male rats dosed once daily over 28 days (OECD 407)
Type: in vivo, rat
Set-up: key to erythro-Sphingoside (d18:1) / Tricosanoic acid (C23:0) / beta-Sitosterol / Tryptophan: ratio of treated group mean to untreated control group mean
Protocol: Each dose group in the studies consisted of five rats per sex. Additional groups of each 5 male and female animals served as controls. […] All animals of the animal population were kept under the same constant temperature (20-24±3° C.) and the same constant humidity (30-70%). The animals of the animal population were fed ad libitum. The food to be used was essentially free of chemical or microbial contaminants. Drinking water was also offered ad libitum. Accordingly, the water was free of chemical and microbial contaminants as laid down in the European Drinking Water Directive 98/83/EG. The illumination period was 12 hours light followed by 12 hours darkness (12 hours light, from 6:00 to 18:00, and 12 hours darkness, from 18:00 to 6:00). […] The test substances (compounds) in the Tables 1 to 17 below were dosed and administered as described in the Table 18.
In the morning of day 7, 14, and 28, blood was taken from the retroorbital venous plexus from fasted anaesthetized animals. From each animal, 1 ml of blood was collected with EDTA as anticoagulant. The samples were centrifuged for generation of plasma. All plasma samples were covered with a N2 atmosphere and then stored at −80° C. until analysis.
For mass spectrometry-based metabolite profiling analyses plasma samples were extracted and a polar and a non-polar (lipid) fraction was obtained. For GC-MS analysis, the non-polar fraction was treated with methanol under acidic conditions to yield the fatty acid methyl esters. Both fractions were further derivatised with O-methyl-hydroxyamine hydrochloride and pyridine to convert Oxogroups to O-methyloximes and subsequently with a silylating agent before analysis. In LC-MS analysis, both fractions were reconstituted in appropriate solvent mixtures. HPLC was performed by gradient elution on reversed phase separation columns. Mass spectrometric detection which allows target and high sensitivity MRM (Multiple Reaction Monitoring) profiling in parallel to a full screen analysis was applied as described in WO2003073464.
Steroids and their metabolites were measured by online SPE-LC-MS (Solid phase extraction-LC-MS).
Following comprehensive analytical validation steps, the data for each analyte were normalized against data from pool samples. These samples were run in parallel through the whole process to account for process variability. The significance of treatment group values specific for sex, treatmentduration and metabolite was determined by comparing means of the treated groups to the means of the respective untreated control groups using WELCH-test and quantified with treatment ratios versus control and p-values.
The identification of the most important biomarkers per toxicity pattern was done by a ranking of the analytes in the tables below. Therefore the metabolic changes in reference treatments of a given pattern (shown in the table) were compared with changes of the same metabolite in other unrelated treatments. […] The maximum absolute value of the respective TVALUE was taken to indicate the most important metabolite for the pattern.

3-O-Methylsphingosine (d18:1) (m7, high dose, Table 10a): 1.27 *
Nervonic acid (C24:cis[15]1) (m7, high dose, Table 10a): 1.39 *
Stearic acid (C18:0) (m7, high dose, Table 10a): 1.15 *
alpha-Tocopherol (m7, high dose, Table 10a): 1.55 *
threo-Sphingosine (d18:1) (m7, high dose, Table 10a): 1.39 *
Thyroxine (T4) (m7, high dose, Table 10b): 0.46 *
trans-4-Hydroxyproline (m7, high dose, Table 10b): 0.79 *
3-Methoxytyrosine (m7, high dose, Table 11a): 1.97 *
3-O-Methylsphingosine (d18:1) (m7, high dose, Table 11a): 1.27 *
Androstenedione (m7, high dose, Table 11a): 19.42 *
Behenic acid (C22:0) (m7, high dose, Table 11a): 1.89 *
Dodecanol (m7, high dose, Table 11a): 1.2 *
Eicosanoic acid (C20:0) (m7, high dose, Table 11a): 2.11 *
Galactose, lipid fraction (m7, high dose, Table 11a): 1.44 *
Glycerol phosphate, lipid fraction (m7, high dose, Table 11a): 1.57 *
Nervonic acid (C24:cis[15]1) (m7, high dose, Table 11a): 1.39 *
Noradrenaline (Norepinephrine) (m7, high dose, Table 11a): 1.36 *
Phosphatidylcholine (C18:0, C18:2) (m7, high dose, Table 11a): 1.38 *
Phytosphingosine (m7, high dose, Table 11a): 2.29 *
Stearic acid (C18:0) (m7, high dose, Table 11a): 1.15 *
Testosterone (m7, high dose, Table 11a): 10.33 *
Tryptophan (m7, high dose, Table 11a): 1.22 *
dihomo-gamma-Linolenic acid (C20:cis[8,11,14]3) (m7, high dose, Table 11a): 1.55 *
myo-Inositol-2-phosphate, lipid fraction (m7, high dose, Table 11a): 2.52 *
threo-Sphingosine (d18:1) (m7, high dose, Table 11a): 1.39 *
3-Hydroxybutyrate (m7, high dose, Table 11b): 0.53 *
4-Hydroxy-3-methoxyphenylglycol (HMPG) (m7, high dose, Table 11b): 0.67 *
18-Hydroxy-11-deoxycorticosterone (m7, high dose, Table 11b): 0.75^
21-Hydroxyprogesterone (11-Deoxycorticosterone) (m7, high dose, Table 11b): 0.65^
Citrate (m7, high dose, Table 11b): 0.74 *
Coenzyme Q9 (m7, high dose, Table 11b): 0.73 *
Coenzyme Q10 (m7, high dose, Table 11b): 0.58 *
Corticosterone (m7, high dose, Table 11b): 0.83^
Metanephrine (m7, high dose, Table 11b): 0.5 *
Palmitoleic acid (C16:cis[9]1) (m7, high dose, Table 11b): 0.77 *
Progesterone (m7, high dose, Table 11b): 0.64^
trans-4-Hydroxyproline (m7, high dose, Table 11b): 0.79 *
3-O-Methylsphingosine (d18:1) (m14, high dose, Table 10a): 0.78
5-O-Methylsphingosine (d18:1) (m14, high dose, Table 10a): 0.81
Cysteine (m14, high dose, Table 10a): 0.96
Lignoceric acid (C24:0) (m14, high dose, Table 10a): 0.9
Nervonic acid (C24:cis[15]1) (m14, high dose, Table 10a): 0.93
Oleic acid (C18:cis[9]1) (m14, high dose, Table 10a): 1.1
Stearic acid (C18:0) (m14, high dose, Table 10a): 1.01
alpha-Tocopherol (m14, high dose, Table 10a): 1.24
erythro-Sphingoside (d18:1) (m14, high dose, Table 10a): 0.79
threo-Sphingosine (d18:1) (m14, high dose, Table 10a): 0.95
Oleic acid (C18:cis[9]1) (m14, high dose, Table 10b): 1.1
Phosphatidylcholine (C16:0, C16:0) (m14, high dose, Table 10b): 0.7 *
Thyroxine (T4) (m14, high dose, Table 10b): 0.57^
trans-4-Hydroxyproline (m14, high dose, Table 10b): 0.89 *
3-Methoxytyrosine (m14, high dose, Table 11a): 1.47 *
3-O-Methylsphingosine (d18:1) (m14, high dose, Table 11a): 0.78
5-O-Methylsphingosine (d18:1) (m14, high dose, Table 11a): 0.81
Androstenedione (m14, high dose, Table 11a): 46.48 *
Arachidonic acid (C20:cis[5,8,11,14]4) (m14, high dose, Table 11a): 0.99
Cholesterol (m14, high dose, Table 11a): 1.07
Cysteine (m14, high dose, Table 11a): 0.96
Eicosanoic acid (C20:0) (m14, high dose, Table 11a): 1.84 *
Galactose, lipid fraction (m14, high dose, Table 11a): 1.07
Glycerol phosphate, lipid fraction (m14, high dose, Table 11a): 1.18 *
Indole-3-lactic acid (m14, high dose, Table 11a): 1.06
Lignoceric acid (C24:0) (m14, high dose, Table 11a): 0.9
Nervonic acid (C24:cis[15]1) (m14, high dose, Table 11a): 0.93
Noradrenaline (Norepinephrine) (m14, high dose, Table 11a): 1.85 *
Phosphate, lipid fraction (m14, high dose, Table 11a): 1.08
Phosphatidylcholine (C18:0, C18:2) (m14, high dose, Table 11a): 1.17
Phosphatidylcholine (C18:0, C20:3) (m14, high dose, Table 11a): 1.01
Phosphatidylcholine (C18:0, C22:6) (m14, high dose, Table 11a): 0.96
Phosphatidylcholine (C18:0,C18:1) (m14, high dose, Table 11a): 1.15
Stearic acid (C18:0) (m14, high dose, Table 11a): 1.01
Testosterone (m14, high dose, Table 11a): 16.89 *
Tricosanoic acid (C23:0) (m14, high dose, Table 11a): 0.9
Tryptophan (m14, high dose, Table 11a): 1.15
alpha-Tocopherol (m14, high dose, Table 11a): 1.16
beta-Sitosterol (m14, high dose, Table 11a): 0.91
dihomo-gamma-Linolenic acid (C20:cis[8,11,14]3) (m14, high dose, Table 11a): 1.46 *
erythro-Sphingosine (d18:1) (m14, high dose, Table 11a): 0.79
threo-Sphingosine (d18:1) (m14, high dose, Table 11a): 0.95
3-Hydroxybutyrate (m14, high dose, Table 11b): 0.72 *
4-Hydroxy-3-methoxyphenylglycol (HMPG) (m14, high dose, Table 11b): 0.7 *
18-Hydroxy-11-deoxycorticosterone (m14, high dose, Table 11b): 0.48 *
21-Hydroxyprogesterone (11-Deoxycorticosterone) (m14, high dose, Table 11b): 0.31 *
Citrate (m14, high dose, Table 11b): 0.88 *
Coenzyme Q10 (m14, high dose, Table 11b): 0.43 *
Corticosterone (m14, high dose, Table 11b): 0.38 *
Metanephrine (m14, high dose, Table 11b): 0.61 *
Palmitoleic acid (C16:cis[9]1) (m14, high dose, Table 11b): 0.68 *
Phosphatidylcholine (C16:0, C16:0) (m14, high dose, Table 11b): 0.7 *
Progesterone (m14, high dose, Table 11b): 0.33 *
trans-4-Hydroxyproline (m14, high dose, Table 11b): 0.89 *
3-O-Methylsphingosine (d18:1) (m28, high dose, Table 10a): 1.52^
Cysteine (m28, high dose, Table 10a): 1.41 *
Lignoceric acid (C24:0) (m28, high dose, Table 10a): 1.3 *
Nervonic acid (C24:cis[15]1) (m28, high dose, Table 10a): 1.46 *
alpha-Tocopherol (m28, high dose, Table 10a): 1.54 *
threo-Sphingosine (d18:1) (m28, high dose, Table 10a): 1.38 *
Phosphatidylcholine (C16:0, C16:0) (m28, high dose, Table 10b): 0.81 *
Thyroxine (T4) (m28, high dose, Table 10b): 0.72^
trans-4-Hydroxyproline (m28, high dose, Table 10b): 0.72 *
3-Methoxytyrosine (m28, high dose, Table 11a): 1.55 *
3-O-Methylsphingosine (d18:1) (m28, high dose, Table 11a): 1.52 *
Androstenedione (m28, high dose, Table 11a): 18.79 *
Behenic acid (C22:0) (m28, high dose, Table 11a): 1.34 *
Cholesterol (m28, high dose, Table 11a): 1.22 *
Cysteine (m28, high dose, Table 11a): 1.41 *
Eicosanoic acid (C20:0) (m28, high dose, Table 11a): 1.93 *
Histidine (m28, high dose, Table 11a): 0.98^
Lignoceric acid (C24:0) (m28, high dose, Table 11a): 1.3 *
Nervonic acid (C24:cis[15]1) (m28, high dose, Table 11a): 1.46 *
Noradrenaline (Norepinephrine) (m28, high dose, Table 11a): 0.93^
Phosphatidylcholine (C18:0, C20:3) (m28, high dose, Table 11a): 0.94^
Phosphatidylcholine (C18:0, C22:6) (m28, high dose, Table 11a): 1.34 *
Testosterone (m28, high dose, Table 11a): 8.45 *
Threonine (m28, high dose, Table 11a): 1.22 *
alpha-Tocopherol (m28, high dose, Table 11a): 1.19^
beta-Sitosterol (m28, high dose, Table 11a): 0.89^
dihomo-gamma-Linolenic acid (C20:cis[8,11,14]3) (m28, high dose, Table 11a): 2.58 *
myo-Inositol-2-phosphate, lipid fraction (m28, high dose, Table 11a): 1.44 *
threo-Sphingosine (d18:1) (m28, high dose, Table 11a): 1.38 *
4-Hydroxy-3-methoxyphenylglycol (HMPG) (m28, high dose, Table 11b): 0.8 *
18-Hydroxy-11-deoxycorticosterone (m28, high dose, Table 11b): 0.07 *
21-Hydroxyprogesterone (11-Deoxycorticosterone) (m28, high dose, Table 11b): 0.26 *
Citrate (m28, high dose, Table 11b): 0.9
Coenzyme Q9 (m28, high dose, Table 11b): 0.95^
Coenzyme Q10 (m28, high dose, Table 11b): 0.4 *
Corticosterone (m28, high dose, Table 11b): 0.07 *
Metanephrine (m28, high dose, Table 11b): 0.48 *
Palmitoleic acid (C16:cis[9]1) (m28, high dose, Table 11b): 0.6 *
Phosphatidylcholine (C16:0, C16:0) (m28, high dose, Table 11b): 0.81 *
Progesterone (m28, high dose, Table 11b): 0.25 *
trans-4-Hydroxyproline (m28, high dose, Table 11b): 0.72 *
3-Hydroxybutyrate (rat, in vivo): 1.08^
Behenic acid (C22:0) (rat, in vivo): 1.12 *
Cholesterol (rat, in vivo): 1.43 *
Coenzyme Q9 (rat, in vivo): 1.04^
Cysteine (rat, in vivo): 1.21^
Galactose, lipid fraction (rat, in vivo): 1.23 *
Glycerol phosphate, lipid fraction (rat, in vivo): 1.28 *
Lignoceric acid (C24:0) (rat, in vivo): 1.43 *
Phosphatidylcholine (C16:0, C16:0) (rat, in vivo): 1.12^
Phosphatidylcholine (C18:0, C18:2) (rat, in vivo): 1.13^
Phosphatidylcholine (C18:0, C20:3) (rat, in vivo): 1.14 *
Phosphatidylcholine (C18:0, C22:6) (rat, in vivo): 1.01^
Stearic acid (C18:0) (rat, in vivo): 1.29 *
Tryptophan (rat, in vivo): 1.08 *
alpha-Tocopherol (rat, in vivo): 1.43 *
beta-Sitosterol (rat, in vivo): 1.24 *
myo-Inositol-2-phosphate, lipid fraction (rat, in vivo): 1.06 *
Structure (SMILES): CC(C)C(=O)Nc1ccc([N+](=O)[O-])c(C(F)(F)F)c1 [Flutamide]
